The target in data set [1] is T1, Bile acid receptor (Homo sapiens) (UniProt Q96RI1).
T1 sequence (whole entry): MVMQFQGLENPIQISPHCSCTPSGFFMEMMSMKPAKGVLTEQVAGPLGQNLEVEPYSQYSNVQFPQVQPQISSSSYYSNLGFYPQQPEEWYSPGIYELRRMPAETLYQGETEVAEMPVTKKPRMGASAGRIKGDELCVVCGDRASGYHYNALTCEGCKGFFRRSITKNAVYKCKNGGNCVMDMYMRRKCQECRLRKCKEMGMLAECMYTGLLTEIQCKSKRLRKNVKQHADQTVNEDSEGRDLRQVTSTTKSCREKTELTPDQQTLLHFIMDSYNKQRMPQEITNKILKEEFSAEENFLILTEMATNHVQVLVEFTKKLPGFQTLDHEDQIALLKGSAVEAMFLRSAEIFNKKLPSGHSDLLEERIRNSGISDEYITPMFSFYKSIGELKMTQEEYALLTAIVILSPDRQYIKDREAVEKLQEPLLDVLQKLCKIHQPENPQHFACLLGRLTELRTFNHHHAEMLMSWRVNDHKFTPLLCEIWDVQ
Nature of the data set: Increase in human FXR-mediated transient transcription of luciferase reporter gene transfected in african green monkey CV1 cells relative to GW-4064. The class given is cell-based. Details: concentration or dose not given beside the values. Conditions: CV-1. (In general: Reporter assays use an easily measured gene product as a stand-in for the process of interest.)

Data set [2] has as its target T2, Bile acid receptor (Homo sapiens, UniProt Q96RI1).
T2 sequence (Q96RI1 whole entry): T1 sequence (whole entry)
The data set can be described thus: Increase in human FXR-mediated transient transcription of luciferase reporter gene transfected in african green monkey CV1 cells. The class given is cell-based, CV-1.

The target in data set [3] is T2, Bile acid receptor. The data set can be described thus: Induction of SRC1 coactivator peptide binding to ligand binding domain of human FXR by FRET assay.
Data set [4] deals with T1, Bile acid receptor (Homo sapiens). The data set can be described thus: Induction of SRC1 coactivator peptide binding to ligand binding domain of human FXR by FRET assay relative to GW-4064. Also on record: concentration or dose not given beside the values.
The nature of data set [5]: Oral bioavailability in rat at 5 mg/kg. The class given is ADME, organism-based. As to conditions: in vivo.
Data set [6] can be described thus: Volume of distribution at steady state in rat at 1 mg/kg, iv. The class given is ADME, organism-based. Also on record: dose 1 mg/kg, route intravenous. As to conditions: in vivo, read-out: Vdss.
Data set [7] is described as follows: Terminal half life in rat at 1 mg/kg, iv. Format: ADME, organism-based. Details: dose 1 mg/kg, route intravenous. As to conditions: in vivo, read-out: beta t1/2.
Data set [8] is described as follows: Total clearance in rat at 1 mg/kg, iv. Format: ADME, organism-based. Details: dose 1 mg/kg, route intravenous. Conditions: in vivo.

Some results are limits rather than exact numbers.

The EC50 is the midpoint of the concentration-response curve. As usually defined, the bioavailability is the share of a dose that reaches the circulation, judged against a reference dose that is usually intravenous. The term clearance denotes the volume of plasma or blood freed of the substance per unit of time.

Regarding `CC(C)c1onc(-c2c(Cl)cccc2Cl)c1COc1ccc2c(c1)CN(c1cccc(C(=O)O)c1)C2=O`, the Activity was 61% in data set [1] and 59% in data set [4]. Also, the EC50 was found to be 1100 nM on Bile acid receptor [2] and 670 nM on Bile acid receptor [3].
In the case of `CC(C)c1onc(-c2c(Cl)cccc2Cl)c1COc1ccc2cc(-c3ccc(C(=O)O)cc3)ccc2c1`, the Activity in data set [1] worked out at 170%; in data set [4], 68%. Moreover, the values for the EC50 on Bile acid receptor [2] and at Bile acid receptor [3] were 980 nM and 440 nM, respectively.
Regarding `CC(C)c1onc(-c2c(Cl)cccc2Cl)c1COc1ccc2c(ccn2S(=O)(=O)c2cccc(C(=O)O)c2)c1`, the Activity in data set [1] was determined as 63%; in data set [4], 87%. For the same molecule, the EC50 at Bile acid receptor [2] came out at 1300 nM; at Bile acid receptor [3], 160 nM.
For `CC(C)c1onc(-c2c(Cl)cccc2Cl)c1COc1ccc2sc(-c3ccc(C(=O)O)cc3)cc2c1` the same measures were 89%, 80%, 160 nM and 280 nM.
Take `CC(C)c1onc(-c2c(Cl)cccc2Cl)c1COc1ccc2c(ccn2C(=O)c2cccc(C(=O)O)c2)c1`: the figures for the Activity in data set [1] and in data set [4] were 63% and 68%, respectively. The EC50 was 860 nM on Bile acid receptor [2] and 150 nM on Bile acid receptor [3].
The like results for `CC(C)c1onc(-c2c(Cl)cccc2Cl)c1COc1ccc2c(Nc3cccc(C(=O)O)c3)cccc2c1` were, in that order, 57%, 95%, 81 nM and 320 nM.
In the case of `CC(C)c1onc(-c2c(Cl)cccc2Cl)c1CCc1nc2cccc(Nc3cccc(C(=O)O)c3)c2o1`, the EC50 on Bile acid receptor [2] is greater than 10000 nM; on Bile acid receptor [3], 1700 nM. In data set [4], this molecule gave an Activity of 19%.
The like results for `CC(C)c1onc(-c2c(Cl)cccc2Cl)c1COc1ccc2[nH]cc(Cc3cccc(C(=O)O)c3)c2c1` were, in that order, greater than 10000 nM, 1500 nM and 25%.
For `CC(C)c1onc(-c2c(Cl)cccc2Cl)c1COc1ccc2sc(-c3cccc(C(=O)O)c3)cc2c1`, the values for the Activity in data set [1] and in data set [4] were 87% and 90%, respectively. Besides, the figures for the EC50 at Bile acid receptor [2] and on Bile acid receptor [3] were 32 nM and 55 nM, respectively. The bioavailability in data set [5] was 8.5%. The Vd in data set [6] was determined as 0.72 L/kg. In addition, the half-life in data set [7] was 15 min. In data set [8], this molecule yielded a clearance of 66 mL/min/kg.
Consider `CC(C)c1onc(-c2c(Cl)cccc2Cl)c1COc1ccc2cc(-c3ccc(C(=O)O)cc3)sc2c1`, for which the Activity was 79% in data set [1] and 95% in data set [4]. The results for the 50% effective concentration (EC50) at Bile acid receptor [2] and on Bile acid receptor [3] were 220 nM and 200 nM, respectively.
Turning to `CC(C)c1onc(-c2c(Cl)cccc2Cl)c1COc1ccc2c(c1)CC(=O)N(c1cccc(C(=O)O)c1)C2`, the values for the concentration giving a half-maximal response (EC50) at Bile acid receptor [2] and on Bile acid receptor [3] were greater than 10000 nM and 1100 nM, respectively. Besides, the Activity in data set [4] was 75%.
As for `CC(C)c1onc(-c2c(Cl)cccc2Cl)c1COc1ccc2nc(-c3cccc(C(=O)O)c3)sc2c1`, the Activity in data set [1] was 86%; in data set [4], 72%. In addition, the EC50 on Bile acid receptor [2] and at Bile acid receptor [3] was 410 nM in each case.
Turning to `CC(C)c1onc(-c2c(Cl)cccc2Cl)c1CNc1nc2ccc(-c3cccc(C(=O)O)c3)cc2s1`, the Activity in data set [1] was 123%; in data set [4], 91%. In addition, the EC50 on Bile acid receptor [2] stood at 380 nM; at Bile acid receptor [3], 960 nM.
The like results for `CC(C)c1onc(-c2c(Cl)cccc2Cl)c1CCc1nc2cc(-c3cccc(C(=O)O)c3)ccc2o1` were, in that order, 75%, 41%, 710 nM and 1200 nM.
Take `CC(C)c1onc(-c2c(Cl)cccc2Cl)c1COc1ccc2c(ccn2Cc2cccc(C(=O)O)c2)c1`: the values for the Activity in data set [1] and in data set [4] were 84% and 80%, respectively. Further, the concentration for a half-maximal effect (EC50) amounted to 210 nM at Bile acid receptor [2] and 320 nM on Bile acid receptor [3]. The molecule also showed a bioavailability in data set [5] of 12%. Also, the Vd in data set [6] was found to be 0.07 L/kg. For the same molecule, the half-life in data set [7] worked out at 45 min. In data set [8], this molecule came in with a clearance of 6.7 mL/min/kg.
In the case of `CC(C)c1onc(-c2c(Cl)cccc2Cl)c1COc1ccc2c(c1)ncn2Cc1cccc(C(=O)O)c1`, the values for the Activity in data set [1] and in data set [4] were 40% and 38%, respectively. In addition, the EC50 at Bile acid receptor [2] was determined as 5000 nM; at Bile acid receptor [3], 1400 nM. This molecule also returned a bioavailability in data set [5] of 26%. In addition, the Vd in data set [6] was 0.085 L/kg. In addition, the half-life in data set [7] is 31 min. In addition, the clearance in data set [8] was determined as 4.4 mL/min/kg.
As to `CC(C)c1onc(-c2c(Cl)cccc2Cl)c1COc1ccc2[nH]c(-c3cccc(C(=O)O)c3)cc2c1`, the Activity in data set [1] is 103%; in data set [4], 81%. Moreover, the EC50 on Bile acid receptor [2] was 630 nM; on Bile acid receptor [3] it was 480 nM.
Turning to `CC(C)c1onc(-c2c(Cl)cccc2Cl)c1COc1ccc2cc(-c3cccc(C(=O)O)c3)sc2c1`, the Activity stood at 93% in data set [1] and 92% in data set [4]. Besides, the EC50 at Bile acid receptor [2] stood at 63 nM; on Bile acid receptor [3], 140 nM.
For `CC(C)c1onc(-c2c(Cl)cccc2Cl)c1COc1ccc2c(Cc3cccc(C(=O)O)c3)c[nH]c2c1`, the Activity is 32% in data set [1] and 81% in data set [4]. Also, the concentration giving a half-maximal response (EC50) came to 930 nM at Bile acid receptor [2] and 590 nM at Bile acid receptor [3].
Regarding `CC(C)c1onc(-c2c(Cl)cccc2Cl)c1COc1ccc2c(c1)CCN(c1cccc(C(=O)O)c1)C2=O`, the Activity worked out at 112% in data set [1] and 52% in data set [4]. The EC50 was found to be 8300 nM at Bile acid receptor [2] and 710 nM at Bile acid receptor [3].
For `CC(C)c1onc(-c2c(Cl)cccc2Cl)c1COc1ccc2c(ccn2Cc2ccc(C(=O)O)cc2)c1` the same measures were 79%, 80%, 330 nM and 160 nM.
The like results for `CC(C)c1onc(-c2c(Cl)cccc2Cl)c1COc1ccc2cc(-c3cccc(C(=O)O)c3)ccc2c1` were, in that order, 103%, 88%, 130 nM and 110 nM.

For the origin of these results see ChEMBL document CHEMBL1154026, “FXR agonist activity of conformationally constrained analogs of GW 4064” (Bioorg Med Chem Lett, 2009).
